# Test results taken from patent publication US5102900A, “Imidazoles useful as antiatherosclerotic agents” (Rhone-Poulenc Rorer S.A., priority 1989, dated 1992).
# How the values were obtained:
# [1] = molecular target: T1, acyl coenzyme-A:cholesterol-O-acyl transferase (ACAT;EC 2.3.1.26) (Rattus norvegicus, UniProt Q7TQM4); assay: In vitro ACAT inhibition in liver microsomes of cholesterol-fed rats, radiolabelled oleoyl-CoA; format: biochemical; settings: 1μg/ml; microsomes from livers of rats fed 0.5% w/w cholesterol and 0.25% w/w cholic acid for 7 days; read-out: In-vitro % Inhibition (degree of ACAT inhibition)
# T1 construct: microsomes, prepared from the livers of rats; from tissue; host or cells: liver microsomes of rats fed 0.5% w/w cholesterol and 0.25% w/w cholic acid for 7 days
# T1 sequence (Q7TQM4 1-524): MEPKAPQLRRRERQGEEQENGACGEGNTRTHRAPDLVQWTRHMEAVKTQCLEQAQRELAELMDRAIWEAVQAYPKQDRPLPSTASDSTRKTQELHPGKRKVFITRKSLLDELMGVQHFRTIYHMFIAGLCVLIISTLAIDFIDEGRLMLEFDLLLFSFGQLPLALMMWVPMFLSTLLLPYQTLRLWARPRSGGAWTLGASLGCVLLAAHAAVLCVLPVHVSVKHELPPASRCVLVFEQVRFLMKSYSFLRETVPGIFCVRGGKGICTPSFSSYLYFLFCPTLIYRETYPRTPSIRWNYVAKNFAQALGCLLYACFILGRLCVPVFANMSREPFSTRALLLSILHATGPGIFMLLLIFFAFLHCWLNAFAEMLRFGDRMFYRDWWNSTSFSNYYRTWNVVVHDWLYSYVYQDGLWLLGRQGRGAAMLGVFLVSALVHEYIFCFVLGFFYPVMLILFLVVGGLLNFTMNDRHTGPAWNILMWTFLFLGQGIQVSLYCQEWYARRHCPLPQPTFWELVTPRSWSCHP
# rats = assay: In vivo inhibition of increase in plasma cholesterol level in rats fed a cholesterol supplemented diet; set-up: species or system rat; settings: 0.03% w/w test compound in cholesterol supplemented diet, after 3 days, 100% or more = similar to control rats on normal diet
# Procedure: In assays performed in vitro microsomes, prepared from the livers of rats fed a diet supplemented with 0.5% w/w cholesterol and 0.25% w/w cholic acid for 7 days, were incubated with radiolabelled oleoyl-CoA in the presence of compounds according to the invention at a concentration of 1μg/ml.
# Values of 100% or more indicate plasma cholesterol concentrations that were similar to those of control rats fed on a normal (non-supplemented) diet.
inhibition at 1 µg/mL [1],SMILES,In-vivo % Reduction (inhibition of increase in plasma cholesterol level relative to control animals) (rats)
74%,"CC1CC(C)OC(c2nc(-c3ccccc3)c(-c3ccccc3)[nH]2)O1 (racemic) [Compound C, (±)-cis/trans-2-(4,6-dimethyl-1,3-dioxan-2-yl)-4,5-diphenylimidazole]",–
94%,"c1ccc(-c2nc(C3OCCCO3)[nH]c2-c2ccccc2)cc1 [Compound A, 2-(1,3-dioxan-2-yl)-4,5-diphenylimidazole]",86%
